Test results as given in patent US12539264B2, “Composition comprising pentapeptide as active ingredient” (priority 2020, dated 2026).
No end group written: not given here.

How the values were obtained:
[1] = system: SH-SY5Y cells; test: Intracellular penetration of rhodamine-pentapeptide conjugate (fluorescence microscopy); assay type: cell-based; conditions: rhodamine-peptide conjugate, 4 hours
Method: In order to confirm that the pentapeptide of the present invention penetrates into the nerve cells, SH-SY5Y cells were seeded in a 6-well plate at a density of 3×10^5 cells/well and cultured in a 37° C., 5% CO2 incubator for 24 hours, and then the medium was replaced with serum-free medium. After treatment with the rhodamine-peptide conjugate for 4 hours at each concentration, cells were fixed by treatment with 4% paraformaldehyde, and nuclei were stained using a DAPI staining kit (Invitrogen, USA). Intracellular peptide penetration was observed using a fluorescence microscope. Blue represents the nuclei of cells stained with DAPI, and red represents the ‘rhodamine-pentapeptide’ conjugate.

[2] = rat, in vivo
[3] = molecular target: SNARE complex (Homo sapiens, UniProt Q16623); test: Inhibition of SNARE complex formation in nerve cells (Western blot, syntaxin 1a antibody); assay type: cell-based
SNARE complex, sequence (Q16623 whole entry, one chain of several): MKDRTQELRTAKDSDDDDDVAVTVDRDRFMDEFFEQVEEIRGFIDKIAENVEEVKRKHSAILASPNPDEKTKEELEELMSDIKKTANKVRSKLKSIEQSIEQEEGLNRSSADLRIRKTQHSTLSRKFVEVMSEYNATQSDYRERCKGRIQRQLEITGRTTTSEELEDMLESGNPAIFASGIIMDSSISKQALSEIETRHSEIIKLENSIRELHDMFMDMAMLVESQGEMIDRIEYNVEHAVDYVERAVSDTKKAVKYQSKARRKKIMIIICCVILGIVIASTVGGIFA

Substance	penetration into nerve cells [1]	penetration into skin tissue [2]	SNARE complex formation [3]
KFLIK [pentapeptide, KFLIK]	penetrated into nerve cells	penetrated into the muscle layer of the skin tissue and co-localized with the nerve cell marker	
botulinum toxin			inhibited
